Data taken from patent publication EP1479385B1, “Use of cyclooxygenase-2 inhibitors in the treatment and prevention of neoplasia” (G.D. Searle LLC, priority 1996, dated 1998).

Columns and labels:
[1] = tested on: Lewis lung carcinomas; assay: Murine Lewis lung carcinoma model (tumor volume); type: in vivo, C57BL/6 mice; settings: day 32 after cancer cell injection, vs control group
Description: Lewis lung carcinomas were implanted sub-cutaneously into the foot pad of male C57BL/6 mice. The mice were subsequently treated with 4-[5-(4-chlorophenyl)-3-(difluoromethyl)-1H-pyrazol-1-yl)benzenesulfonamide. The drug was supplied in the drinking water at 6 mg/kg/day. […] The drug was supplied in the drinking water at the maximum tolerated dose of […]. A total of 10 mice/compound were tested. Tumor volume was determined twice a week using a plethysmometer. The % inhibition value is calculated by calculating the difference in tumor size compared with the control group.

[2] = tested on: PC-3 cells; assay: Human prostate cancer PC-3 tumors in nude mice; type: in vivo; settings: 20 mg/kg/day in water
Description: (§1) Two human prostate cancer cell lines (PC-3 and LNCaP) were obtained (ATCC) to determine the efficacy of cyclooxygenase-2 inhibitors to inhibit tumor growth in a therapeutic model. In addition, the LNCaP cell line secretes prostate serum antigen (PSA) when grown in nude mice.
PC-3 cells (10^6 cells/0.2 ml of 30% matrigel) in RPMI 1640 medium was injected on the back of nude mice. […] After 45 days, PGE2 and TXB2 were measured.

[3] = tested on: LNCaP; assay: Human prostate cancer LNCaP tumors in nude mice; type: in vivo; settings: dose equivalent to 6 mg/kg/day in the drinking water
Description: as §1
PSA level was reduced to approximately 50% as judged by western blotting.

[4] = tested on: Lewis Lung carcinoma cells; assay: Combination therapy in Lewis Lung carcinoma model (tumor volume); type: in vivo, C57BL/6 mice; settings: CTX 50 mg/kg injected on days 5, 7 and 9 after implantation
Description: Lewis Lung carcinoma cells (2.5 x 10^6 cells) prepared from a brei carried in C57BL/6 mice were injected sub-cutaneously into the hind legs of mice.

## NS(=O)(=O)c1ccc(-n2nc(C(F)F)cc2-c2ccc(Cl)cc2)cc1 [COX-2 inhibitor, 4-[5-(4-chlorophenyl)-3-(difluoromethyl)-1H-pyrazol-1-yl]benzenesulfonamide]
[1]; 6 mg/kg/day in the drinking water
  Tumor Volume (Day 32) % Inhibition: 70.86%
[2]; administered from day 28, after 45 days
  inhibited tumor growth: 55%
[2]; measured after 45 days
  PGE2 levels reduced: 80-90%
  TXB2 levels reduced: 80-90%
[3]; day 58
  inhibited the growth of the tumor: 55%
[3]; judged by western blotting
  PSA level was reduced to: approximately 50%

## COc1ccc2c(c1)c(CC(=O)O)c(C)n2C(=O)c1ccc(Cl)cc1 [Indomethacin, indomethacin, reference compound]
[1]; 2 mg/kg/day (maximum tolerated dose) in the drinking water
  Tumor Volume (Day 32) % Inhibition: 62.90%

## O=P1(N(CCCl)CCCl)NCCCO1 (centres unmarked) [CTX, Cyclophosphamide]
[4]
  Tumor Volume (Day 22) % Inhibition: 57%
